Laboratory results reported in BindingDB's records for doi:10.1021/jm0491039 (University of Washington At Seattle, 2005).

Tests used:
[1] = biological target: Protein farnesyltransferase/geranylgeranyltransferase type-1 subunit alpha / Protein farnesyltransferase subunit beta (Plasmodium falciparum, UniProt Q5EI73+Q5EI74); assay: PfPFT and Rat PFT IC50 Determination; settings: pH 7.5; 37 °C
Procedure: (§1) Assays for PFT activity were performed with a PFT-specific scintillation assay (SPA) kit (Amersham Biosciences, Piscataway, NJ). IC50 values were calculated using linear regression analysis of the plots of [3H] farnesyl pyrophosphate (FPP) prenylation versus concentration of compounds.

[2] = biological target: Protein farnesyltransferase/geranylgeranyltransferase type-1 subunit alpha (Rattus norvegicus, UniProt Q04631); assay: PfPFT and Rat PFT IC50 Determination
Procedure: as §1

Chain of Protein farnesyltransferase/geranylgeranyltransferase type-1 subunit alpha / Protein farnesyltransferase subunit beta (Q5EI73 1-521): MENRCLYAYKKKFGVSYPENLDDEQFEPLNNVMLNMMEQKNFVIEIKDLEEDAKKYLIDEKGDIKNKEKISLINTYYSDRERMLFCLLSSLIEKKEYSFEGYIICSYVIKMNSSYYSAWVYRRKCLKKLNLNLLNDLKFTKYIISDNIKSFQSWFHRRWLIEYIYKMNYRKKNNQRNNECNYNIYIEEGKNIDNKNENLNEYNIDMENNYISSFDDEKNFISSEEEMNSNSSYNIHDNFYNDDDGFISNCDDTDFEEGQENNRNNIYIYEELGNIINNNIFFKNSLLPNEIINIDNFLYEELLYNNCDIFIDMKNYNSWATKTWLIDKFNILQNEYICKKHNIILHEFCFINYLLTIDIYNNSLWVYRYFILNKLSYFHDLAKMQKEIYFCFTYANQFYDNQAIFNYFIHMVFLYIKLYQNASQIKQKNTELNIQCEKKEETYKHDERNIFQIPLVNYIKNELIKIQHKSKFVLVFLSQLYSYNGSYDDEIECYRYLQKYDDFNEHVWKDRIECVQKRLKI
Chain of Protein farnesyltransferase/geranylgeranyltransferase type-1 subunit alpha / Protein farnesyltransferase subunit beta (Q5EI74 1-923): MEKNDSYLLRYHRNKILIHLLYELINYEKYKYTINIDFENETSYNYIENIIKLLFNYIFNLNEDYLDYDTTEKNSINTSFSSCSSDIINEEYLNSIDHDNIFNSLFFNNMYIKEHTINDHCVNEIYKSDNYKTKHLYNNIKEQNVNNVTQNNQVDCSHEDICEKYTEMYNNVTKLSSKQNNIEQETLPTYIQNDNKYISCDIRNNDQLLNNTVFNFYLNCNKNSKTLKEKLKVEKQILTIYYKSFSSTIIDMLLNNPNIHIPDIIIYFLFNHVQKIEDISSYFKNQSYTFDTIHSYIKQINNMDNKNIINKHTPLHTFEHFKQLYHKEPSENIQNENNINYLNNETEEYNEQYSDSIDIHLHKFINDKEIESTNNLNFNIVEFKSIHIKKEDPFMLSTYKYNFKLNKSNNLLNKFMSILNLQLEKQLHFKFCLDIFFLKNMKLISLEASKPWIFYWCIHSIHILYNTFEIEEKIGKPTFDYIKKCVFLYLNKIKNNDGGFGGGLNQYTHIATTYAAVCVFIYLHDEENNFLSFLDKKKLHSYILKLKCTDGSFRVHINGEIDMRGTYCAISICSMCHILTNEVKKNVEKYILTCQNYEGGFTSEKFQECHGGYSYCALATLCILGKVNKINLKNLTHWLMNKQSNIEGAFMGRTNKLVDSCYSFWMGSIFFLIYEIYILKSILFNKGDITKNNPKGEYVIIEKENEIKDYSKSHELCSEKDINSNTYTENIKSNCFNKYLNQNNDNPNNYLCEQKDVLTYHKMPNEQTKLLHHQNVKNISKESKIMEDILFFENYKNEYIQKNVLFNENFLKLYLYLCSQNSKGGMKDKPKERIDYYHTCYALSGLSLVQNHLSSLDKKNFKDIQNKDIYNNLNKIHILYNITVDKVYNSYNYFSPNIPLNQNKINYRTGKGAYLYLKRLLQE

SMILES | IC50 [1] [µM] | IC50 [2] [µM]
[C-]#[N+]c1ccc2c(c1)CC(N(CC(=O)NC(C)(C)C)S(=O)(=O)c1ccncc1)CN2Cc1cncn1C (stereo unspecified) [N-tert-Butyl-2-[[6-isocyano-1-(3-methyl-3H-imidazol-4-ylmethyl)-1,2,3,4-tetrahydroquinolin-3-yl]-(pyridine-4-sulfonyl)amino]acetamide] | 1 | 0.16
[C-]#[N+]c1ccc2c(c1)CC(N(CC(=O)NC(C)(C)C)S(=O)(=O)c1ccccn1)CN2Cc1cncn1C (stereo unspecified) [N-tert-butyl-2-({6-isocyano-1-[(1-methyl-1H-imidazol-5-yl)methyl]-1,2,3,4-tetrahydroquinolin-3-yl}(pyridine-2-)sulfonamido)acetamide] | 0.0014 | 0.0018
[C-]#[N+]c1ccc2c(c1)CC(N(CC(=O)NC(C)(C)C)S(=O)(=O)c1cccnc1)CN2Cc1cncn1C (stereo unspecified) [N-tert-Butyl-2-[[6-isocyano-1-(3-methyl-3H-imidazol-4-ylmethyl)-1,2,3,4-tetrahydroquinolin-3-yl]-(pyridine-3-sulfonyl)amino]acetamide] | 0.025 | 0.006
